Like-named read-outs stand apart in the source and are kept apart here. {Amino} = amino group added with ABI Aminolink 2 reagent, used to attach Texas Red
Columns and labels:
Ras-G = experiment: Ras-12 single point mutation hybridization with 15-mer probes; assay type: binding
Excerpt: In the Ras-12 example, 15-mer point mutation specific probes were electronically hybridized to 30-mer target sequences attached to the microlocations on test devices. The polarity at the microlocations was biased negative, and the hybrids were subjected to constant current for a given time, providing a defined power level which denatures the mis-match without affecting the perfect match.
Test devices were fabricated from microcapillary tubes as described previously in the specification. Attachment sequences Ras-G and Ras-T were periodate oxidized and covalently bound to the addressed microlocations.
Ras-G microlocation were then hybridized with Ras-1, Ras-2 or Ras-3. Ras-1 is the perfect match to Ras-G. Ras-2 is a one base pair mismatch (G-A). Ras-3 is a two base pair mismatch (G-A and G-T). The G-A mis-match produces the least destabilization to the DNA duplex, and is therefore the most difficult to distinquish from the perfect match.
Conventional hybridization was first carried out and the microlocations were examined fluorescently to measure to what extent complementary sequences were hybridized. The test devices (microcapillaries) were re-mounted and electronic hybridization was then carried out. […] The procedure and results are shown below: […]

ET-10AL capture sequence = experiment: Electronically controlled fluorescent DNA/dye (ethidium bromide) detection; assay type: binding; details: peak ethidium bromide fluorescence after positive bias 0.05 mA, 0.03 Volt-Hours; capture ET-10AL
Method: Microcapillary test devices were prepared and hybridized as described in Example 2 and 3. Ethidium bromide (EB) was added to the buffer solution (˜0.05 mM EB final concentration) and the test devices were biased negative to concentrate EB (positively charged) at both the hybridized and un-hybridized microlocations. The test devices were observed by epifluorescece microscopy at 550 nm excitation and 600 nm emission.
The test devices were re-mounted biased positive
constant current at 0.05 mA for 0.03 Volt-Hours, to selectively remove the EB. Fluorescence at the un-hybridized microlocations diminished while the hybridized microlocations retained a very high level of EB fluorescence. The results are given below:
Fluorescent signal was measured using an ICCD imaging

[1] = Conductivity measurements of transport buffers; assay type: physicochemical; details: for Average/Std. Deviation / Measurement 1 / Measurement 2 / Measurement 3: conductivity
[2] = system: btr-RCA5 fluorescent DNA probe; experiment: Fluorescent DNA checkerboard addressing; details: bias reversed every 6 seconds, 80 micron microlocations
[3] = system: target DNA to the specific capture DNA; experiment: DNA hybridization sensitivity on the APEX chip; details: normal DNA
[4] = Buffer capacity, pH and conductivity of buffers used on the APEX chip; details: for PH: NaPO4: 20 mM adjusted to pH 7.4
[5] = Buffer conductivity and pH measurements; assay type: physicochemical; design: conductivity: unit not given here; details: for conductivity: RT; for pH: in water at room temperature
Method: Buffer Conductivity and pH Measurements—The conductivities of test buffer solutions utilized for transport and hybridization were measured at RT using an Accumet 1.0 cm^−1 glass conductivity cell connected to an Accumet Model 50 pH/Ion/Conductivity meter (Fisher Scientific). Buffer pH values were obtained using an Accu-pHast variable temperature combination electrode and the same model meter.

DNA = DNA transport (accumulation) on the APEX chip; details: in words, same field conditions
[6] = cited from earlier work; for pK1 / pK2 / pK3: Table 2
[7] = system: btrRCA5 to ATA5 capture oligonucleotide; experiment: Accumulation and electronic hybridization in test buffers; details: for support of sequence specific electronic hybridization: in words
Method: Microelectronic Chips, Permeation Layer and Instrumentation—These have been described previously with the following exception. The permeation layer employed herein has an underlayer of agarose beneath the top streptavidin-containing agarose layer (approximately one micron in total thickness). To make the underlayer, […] glyoxal agarose (2%) was spun on at 2000 rpms for 20 sec prior to the application of the streptavidin-agarose layer. In brief, the 5580 series APEX chip used for these experiments consists of a 5×5 array of […] circular microelectrodes with […] microelectrodes at each corner of the array. Chips were mounted on a micromanipulator stage and the microelectrodes activated by a power supply and appropriately controlled relay switches. Fluorescently labeled oligonucleotides on the chip were visualized using oblique illumination with two 594 nm HeNe lasers and the images were quantified using either NIH Image or IPLab Spectrum software packages.
Accumulation and Hybridization—Two biotinylated capture oligonucleotides, ATA5 and ATA4 were electronically transported and localized at adjacent microelectrodes. The solution was removed and the chip washed 3-4× in test buffer. Buffers employed in these studies are listed in Table 3 and were utilized at the listed pH values and concentrations presented.
The L-isomers of amino acids were used, unless otherwise noted. The chip was equilibrated in test buffer for 5-10 min. Then fresh buffer containing 10 nM BODIPY-Texas Red labeled RCA5 (btrRCA5), an oligonucleotide complementary to ATA5 but not ATA4 (RS paper) was applied.
The […] microelectrodes were employed as cathodes and one microelectrode within the array used as the corresponding anode. Accumulation was assessed by sourcing a 500 nA constant current to individual microelectrodes for 30 sec and monitoring the accumulation of fluorescence at the positively-biased (anode) site in the microelectrode array. Signal arising from non-fluorescent sources (ie. thermal noise, etc.) was subtracted. Experiments examining the effect of different currents upon signal accumulation were conducted in a similar fashion except that the applied current varied from 100 nA to 1 mA. […] For the comparison between conductivities of various buffers, the data is presented as fold increase over initial fluorescence to account for chip-to-chip variation as well as laser illumination variations in signal levels. For other experiments, the data is presented as attomol product versus time, after converting^2 the observed fluorescence intensity to moles of labeled oligonucleotide.
Following accumulation at one microelectrode location, the buffer was removed and fresh buffer containing btrRCA5 applied. An adjacent microelectrode was then sourced in a similar fashion. Upon completion, the buffer was removed and the chip washed 5-7× with test buffer without btrRCA5. The pair of previously targeted microelectrodes were then illuminated and the fluorescence present at each site quantified. Control experiments utilized a bodipy-Texas Red labeled oligonucleotide complementary to ATA4 to verify the integrity and concentration of the ATA4 capture oligonucleotide. Percent hybridization efficiency was calculated as follows: (complementary oligonucleotide signal−noncomplementary signal)/(signal present immediately prior to the end of the applied current)×100.

[8] = target: streptavidin/biotin DNA probe (Streptomyces avidinii, UniProt P22629); experiment: Streptavidin/biotin DNA probe capture affinity on the APEX chip; assay type: binding
Sequence of streptavidin/biotin DNA probe (P22629 25-183, species assumed): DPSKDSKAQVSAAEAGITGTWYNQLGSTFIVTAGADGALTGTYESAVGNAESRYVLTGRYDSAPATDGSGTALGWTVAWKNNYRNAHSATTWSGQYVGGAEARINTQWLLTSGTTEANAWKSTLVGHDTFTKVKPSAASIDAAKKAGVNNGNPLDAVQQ

btrRCA5 to ATA5 [9] = experiment: Passive hybridization versus electric field hybridization; details: 50 mM
Method: Passive Hybridization versus Electric Field Hybridization—ATA5 was electrically targeted to the first four columns of the microarray on streptavidin/agarose coated chips prepared as above, and ATA4 was targeted to the remaining column. For passive hybridization, either 5.0 nM or 0.5 nM btrRCA5 in 5×SSC (1×=0.15 M NaCl, 15 mM sodium citrate, pH 7.0) was applied for 1 min, then the chips were washed 6× in buffer and imaged. For the 3 min timepoint, fresh buffer containing btrRCA5 was applied and incubated for an additional 2 min to achieve 3 min cumulative incubation time. This approach was repeated for the remaining time points. […] Five sites, 4 with ATA5 previously attached and 1 with ATA4, were electronically targeted using 3.1 V total, (approximately 500 nA/site). […] In both passive and electric field mediated hybridization, the background signal present at the ATA4 sites was subtracted from the signal present at ATA5 sites.

[10] = for pH above the surface of the permeation layer: not told
btrRCA5 to ATA5 [11] = experiment: Passive hybridization at different pHs
Excerpt: Passive Hybridization at Different pHs—Biotinylated ATA5 and ATA4 were electronically targeted to adjacent sites upon streptavidin/agarose coated microarrays. […] A parallel hybridization was done in 6×SSC. After this hybridization period, the chips were washed in 0.2×STE, 0.1% sodium dodecyl sulfate, as above and the remaining fluorescence at each site quantitated. Fluorescence values present at ATA4 sites were subtracted from adjacent ATA5 sites and the remaining fluorescence converted to attomol btrRCA5 specifically hybridized. Additional experiments repeated this methodology and also examined buffer adjusted with concentrated acetic acid (at the pI and at pH 6 and 5).

[12] = system: Reporter DNA to DNA1 or PNA1 capture; experiment: Hybridization of phosphodiester-linked oligonucleotides versus PNA analogues; details: 200 nA versus 500 nA

3′-CC-GCG-GCC-GCC-ACA-C-5′-(TR) (DNA CCGCGGCCGCCACAC; TR label, further chemistry not given here; listed 3' to 5') [Ras-1]
signal ratio of perfect match (Ras-G/Ras-1) to 1 bp mis-match (Ras-G/Ras-2) (Ras-G; conventional hybridization, 5×SSC 15 minutes 40° C., washes): about 10 to 1
signal ratio of perfect match (Ras-G/Ras-1) to 1 bp mis-match (Ras-G/Ras-2) (Ras-G; electronic stringency control, 0.15 mA at 150 V for 4 minutes, 20° C.): > 100 to 1

5′-Amino-CCT GCT CAT GAG TCT CTC (DNA CCTGCTCATGAGTCTCTC; DNA, 5' {Amino}, backbone not given here; further chemistry not fully specified) [ET-11AL]
Normalized Signal (ET-10AL capture sequence): >200

5′-Amino-TGCGAGCTGCAGTCAGACAT (DNA TGCGAGCTGCAGTCAGACAT; DNA, 5' {Amino}, backbone not given here; further chemistry not fully specified) [ET-21A]
Normalized Signal (ET-10AL capture sequence): 1

O=S(=O)(O)CCN1CCN(CCO)CC1 [250 mM HEPES, HEPES]
Average/Std. Deviation [1]: 147.6 +/− 9.07 μS/cm
Measurement 1 [1]: 141 μS/cm
Measurement 2 [1]: 144 μS/cm
Measurement 3 [1]: 158 μS/cm
Average/Std. Deviation ([1]; listed as 25 mM HEPES): 9.7 +/− 0.71 μS/cm
Measurement 1 ([1]; listed as 25 mM HEPES): 9.16 μS/cm
Measurement 2 ([1]; listed as 25 mM HEPES): 9.44 μS/cm
Measurement 3 ([1]; listed as 25 mM HEPES): 10.5 μS/cm
checkerboard addressing and concentration of fluorescent DNA probe [2]: Rapid (6 second) checkerboard addressing and concentration of the btr-RCA5 fluorescent DNA probe was demonstrated

N[C@@H](CS)C(=O)O [Cysteine]
Hybridization Sensitivity of DNA [3]: 7.5×10^10 targets
conductivity [4]: 25.0 μS
PH [4]: 5.2
conductivity ([5]; 50 mM): 9.0 +/− 0.9
pH ([5]; 50 mM): 5.08
conductivity ([5]; 250 mM): 21.8 +/− 4.4
conductivity [1]: ~23 μS/cm
Average/Std. Deviation [1]: 22.7 +/− 5.09 μS/cm
Measurement 1 [1]: 27.4 μS/cm
Measurement 2 [1]: 17.3 μS/cm
Measurement 3 [1]: 23.5 μS/cm
transport (DNA): excellent transport
pK1 [6]: pK1 - 1.7
pK2 [6]: pK2 - 8.3
pK3 [6]: pK3 - 10.8
pl ([6]; Table 3): 5.02
pI [6]: 5.02
support of sequence specific electronic hybridization [7]: difficult to evaluate because of poor signal accumulation

N[C@@H](Cc1c[nH]cn1)C(=O)O [Histidine]
Hybridization Sensitivity of DNA [3]: 3×10^6 targets
conductivity [4]: 212.0 μS
PH [4]: 7.6
conductivity ([4]; hi purity): 172.0 μS
SA-Biotin T12 Sensitivity [8]: 3 × 10^6
hybridization in the absence of an applied electric field (btrRCA5 to ATA5 [9]): No hybridization was observed
pH of the solution ([10]; 200 nA): > 6
pH of the solution ([10]; 500 nA): > 5
pH above the surface of the permeation layer [10]: > 5
passive hybridization (btrRCA5 to ATA5 [11]; at its pI (pH 7.5), 50 mM): does not facilitate hybridization
passive hybridization (btrRCA5 to ATA5 [11]; pH 6.0 and 5.0, 50 mM): accelerated hybridization
transport (DNA): good transport
pK1 [6]: pK1 - 1.8
pK2 [6]: pK2 - 6.0
pK3 [6]: pK3 - 9.0
pI [6]: 7.47
support of sequence specific electronic hybridization [7]: demonstrated specific hybridization
DNA:DNA hybridization [12]: only occurs well at 500 nA
PNA:DNA hybridization [12]: occurs at roughly equal efficiencies at either current

NCCCC[C@H](N)C(=O)O [Lysine]
conductivity [4]: 477.0 μS
PH [4]: 9.6
SA-Biotin T12 Sensitivity [8]: >7.5 × 10^10
transport (DNA): fair transport
pK1 [6]: pK1 - 2.2
pK2 [6]: pK2 - 8.9
pK3 [6]: pK3 - 10.3
pI [6]: 9.74

c1c[nH]cn1 [imidazole]
conductivity ([5]; 50 mM): 17.6 +/− 1.6
pH ([5]; 50 mM): 9.08
pH above the surface of the permeation layer [10]: > 5
hybridization efficiency ([7]; [(specific hybridization)/(transported)] × 100): 4.0
transported ([7]; fluorescent signal at completion of electronic targeting, value +/− SEM, 50 mM buffer): 528 +/− 63
specific hybridization ([7]; value +/− SEM, 50 mM buffer): 21.2 +/− 6.6 attomol

Source: patent publication US8114589B2, “Self-addressable self-assembling microelectronic integrated systems, component devices, mechanisms, methods, and procedures for molecular biological analysis and diagnostics” (Gamida For Life B.V., priority 1996, dated 2012)
